Assay results from US20110195128A1, “TREATING OR PREVENTING GOUT” (priority 2008, published 2011).

Assays:
[1] = cited from earlier work
IL-8 = assay: THP-1 cell assay analysed by ELISA, MSU crystal-stimulated IL-8 release; assay type: cell-based; details: THP-1 cells, PMA, 4 h pre-incubation, MSU crystals 0.5 mg/mL, supernatant after 16 h; highest concentration of test substance; mean of at least three experiments; * p<0.05 vs vehicle
Experimental: (§1) THP-1 cells were cultured in RPMI with 10% FCS, penicillin, streptomycin, glutamine and pyruvate. At day −1, 1.5×10^6 THP-1 cells were plated in 24 well plates. These cells were cultured in the presence or absence of 5 μM phorbol 12-myristate 13-acetate (PMA) for three hours. PMA is required for NALP-3 inflammasome activation and IL-1β production in response to MSU crystals. On day 0, medium was replaced in all wells. Cells were then pre-incubated with vehicle control, test substance at three concentrations, or diclofenac control (10 μg/ml) for 4 hours. MSU crystals were then added (0.5 mg/mL) Supernatants were harvested for ELISA after 16 hours. ELISA was conducted to determine inhibition of IL-1β expression. It has been reported that this cytokine is a pivotal regulator of the inflammatory response to MSU crystals (Chen et al 2006 and Martinon et al 2006). Inhibition of IL-8 expression was also determined.
(§2) A mean change in cytokine expression from cells treated with control vehicle pooled data from all experiments (10 μg/ml). Values represent mean (standard error) from at least three experiments in which cytokine release from wells treated with the highest concentration of milk extract has been normalized to vehicle treated wells.
(§3) The results are shown in Table 2 below and in FIGS. 1 and 2. Table 3 contrasts the result for GMP when the MSU was replaced with a different antigen, LPS. […]

IL-1β [2] = assay: THP-1 cell assay analysed by ELISA, MSU replaced with LPS, IL-1β production; assay type: cell-based; details: THP-1 cells, normalized to vehicle
Experimental: as §1
The results are shown in Table 2 below and in FIGS. 1 and 2. Table 3 contrasts the result for GMP when the MSU was replaced with a different antigen, LPS. The casein hydrolysate tested was produced by extensively hydrolysing casein (to a degree of hydrolysis of 33%) using the enzymes pancreatin and corolase. […]

urate peritonitis model = assay: Murine urate peritonitis model, total cellular influx; assay type: in vivo, CD1 mice; details: mice fed for a week before i.p. 3 mg MSU crystals; lavage after four hours; GMP 0.05-0.5 g per kg in drinking water; G600 precursor 12.5-100% of total fat in diet
Experimental: Adult male CD1 mice (Vernon Jansen Unit, University of Auckland) were housed in conventional facilities with temperature control and 12 hour light/dark cycles. All protocols involving live animals were subjected to ethical review and a range of welfare score sheets and action plans were used to monitor and minimize the impact of the study on the animals. Mice were fed milk extracts for a week prior to induction of peritonitis. At least eight mice were used for each experimental condition. GMP was dissolved in drinking water at 0.05, 0.1, 0.25 and 0.5 g per kg mouse. The G600™ milk fat extract precursor (Batch 2, freeze dried, no added lactose) was incorporated into rodent chow at 12.5, 25, 50 and 100% of total fat in diet.
The murine urate peritonitis protocol was based on the model described by Getting et al (1997). Adult male CD1 mice weighing 22-28 g were selected for the urate peritonitis model. Mice were anaesthetized using urethane. Peritonitis was induced by intraperitoneal injection of 3 mg MSU crystals resuspended in 250 μl PBS. The body temperature of anaesthetized mice was monitored and maintained at 37° C. using a heat pad, and hydration was maintained by subcutaneous injection of 0.9% NaCl (Normal Saline) at a volume of […] body weight two hours after initial treatments and every hour thereafter. […]

IL-1β [3] = assay: THP-1 cell assay analysed by ELISA, MSU crystal-stimulated IL-1β release; assay type: cell-based; details: THP-1 cells
Experimental: as §1, §2, §3

IL-1β gene expression = assay: THP-1 cell assay analysed by RT-PCR, IL-1β gene expression; assay type: cell-based; details: THP-1 cells, treatment as in Example 1 (FIG. 5)
Excerpt: THP-1 assays were used to study IL-1β and IL-8 gene expression by RT-PCR, using the same treatment protocols as described for the THP-1 ELISA assay in Example 1 above and the RT-PCR protocol described in Dalbeth et al, 2008.

Compound	adverse effects ([1]; all patients, within 24 hours of taking this medication)	reduction in pain in joints ([1]; gout patients, within 48 hours)	IL-8 (cytokine release normalized to vehicle treated wells) (IL-8)	LPS-stimulated IL-1β production (IL-1β [2])	total cellular influx in the urate peritonitis model (urate peritonitis model)	IL-1β (cytokine release normalized to vehicle treated wells) (IL-1β [3]; PMA, 4 h pre-incubation, MSU crystals 0.5 mg/mL, supernatant after 16 h, highest concentration of test substance, mean of at least three experiments, * p<0.05 vs vehicle)	MSU crystal-stimulated IL-1β production (IL-1β [3]; normalized to vehicle, * p<0.05)	IL-1β gene expression (IL-1β gene expression)
COc1cc2c(c(OC)c1OC)-c1ccc(OC)c(=O)cc1[C@@H](NC(C)=O)CC2 [colchicine, Colchicine]	developed diarrhoea and/or vomiting	50%						
Glycomacropeptide [GMP]			1.22	0.94	significant inhibition	0.72*	0.72*	inhibits
